# Source: US10294234B2, “HIV inhibitor compounds” (priority 2017, dated 2019)
# Where two headings read alike, the source gives them in different places.
# Experiments:
# [1] = system: HIV-1 (IIIB) in MT-4 cells; assay: MT-4 HIV assay; assay type: cell-based; settings: Human immunodeficiency virus 1, MT4, 120 h
# Summary of the method: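 MT-4 cells infected with HIV-1 IIIB (1:250 stock dilution) were incubated with 1:3 serially diluted compounds in RPMI with 10% FBS for 5 days at 37 °C. Cell Titer Glo luminescence was the readout. Plates included mock-infected wells, no-drug wells and 5 uM AZT controls.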
# [2] = Summary of the method: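 Compounds at 1 uM were incubated in duplicate with dog, rat or human liver microsomes (0.5 mg/mL protein) and an NADPH-regenerating system, sampled at 2, 12, 25, 45 and 65 minutes. Remaining parent was measured by LC/MS/MS, and Clint was calculated from the in vitro t1/2.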
# [3] = HIV-1 (IIIB), MT-4 cells, 5 days, Cell Titer Glo, read-out: EC50
# [4] = human liver microsomes 0.5 mg/mL, 1 uM compound, NADPH
# [5] = rat liver microsomes 0.5 mg/mL, 1 uM compound, NADPH
"Human Pred Cl. [2, 4]","Rat. Pred. Cl. [2, 5]",SMILES,"EC50 [1, 3]","Human Pred Cl. ([2]; human, microsomes)","Rat. Pred. Cl. ([2]; rat, microsomes)",EC50 [1]
,,"COC(=O)N[C@H](C(=O)N[C@@H](Cc1ccc(C#Cc2ccc(N3CC4CCC(C3)N4C3COC3)nc2)cc1)[C@@H](O)CN(Cc1c(F)cc(-c2ccn([C@H]3CCOC3)n2)cc1F)NC(=O)[C@@H](NC(=O)OC)C(C)(C)C(F)(F)F)C(C)(C)C(F)(F)F [Example 14, Methyl ((5S,8S,9S,14S)-11-(2,6-difluoro-4-(1-((S)-tetrahydrofuran-3-yl)-1H-pyrazol-3-yl)benzyl)-16,16,16-trifluoro-9-hydroxy-15,15-dimethyl-8-(4-((6-(8-(oxetan-3-yl)-3,8-diazabicyclo[3.2.1]octan-3-yl)pyridin-3-yl)ethynyl)benzyl)-3,6,13-trioxo-5-(1,1,1-trifluoro-2-methylpropan-2-yl)-2-oxa-4,7,11,12-tetraazahexadecan-14-yl)carbamate]",4.39 nM,0.66 L/H/kg,1.13 L/H/kg,
<0.11 L/H/kg,0.39 L/H/kg,"COC(=O)N[C@H](C(=O)N[C@@H](Cc1ccc(C#Cc2ccc(N3CCN(C)C(=O)C3)nc2)cc1)[C@@H](O)CN(Cc1c(F)cc(-c2ccn(C(F)F)n2)cc1F)NC(=O)[C@@H](NC(=O)OC)C(C)(C)C(F)(F)F)C(C)(C)C(F)(F)F [Example 81, Methyl ((5S,8S,9S,14S)-11-(4-(1-(difluoromethyl)-1H-pyrazol-3-yl)-2,6-difluorobenzyl)-16,16,16-trifluoro-9-hydroxy-15,15-dimethyl-8-(4-((6-(4-methyl-3-oxopiperazin-1-yl)pyridin-3-yl)ethynyl)benzyl)-3,6,13-trioxo-5-(1,1,1-trifluoro-2-methylpropan-2-yl)-2-oxa-4,7,11,12-tetraazahexadecan-14-yl)carbamate]",,,,4.39 nM
,,"COC(=O)N[C@H](C(=O)NN(Cc1c(F)cc(-c2cnccn2)cc1F)C[C@H](O)[C@H](Cc1ccc(C#Cc2ccc(N3CC4CCC(C3)N4C3COC3)nc2)cc1)NC(=O)[C@@H](NC(=O)OC)C(C)(C)C(F)(F)F)C(C)(C)C [Example 107, Methyl ((5S,8S,9S,14S)-11-(2,6-difluoro-4-(pyrazin-2-yl)benzyl)-9-hydroxy-15,15-dimethyl-8-(4-((6-(8-(oxetan-3-yl)-3,8-diazabicyclo[3.2.1]octan-3-yl)pyridin-3-yl)ethynyl)benzyl)-3,6,13-trioxo-5-(1,1,1-trifluoro-2-methylpropan-2-yl)-2-oxa-4,7,11,12-tetraazahexadecan-14-yl)carbamate]",2.23 nM,1.1 L/H/kg,,
0.41 L/H/kg,1.43 L/H/kg,"COC(=O)N[C@H](C(=O)N[C@@H](Cc1ccc(C#Cc2ccc(N3CC4CC(CN(C(C)=O)C4)C3)nc2)cc1)[C@@H](O)CN(Cc1c(F)cc(-c2cnn(C(F)F)c2)cc1F)NC(=O)[C@@H](NC(=O)OC)C(C)(C)C(F)(F)F)C(C)(C)C(F)(F)F [Example 67, Methyl ((5S,8S,9S,14S)-8-(4-((6-(7-acetyl-3,7-diazabicyclo[3.3.1]nonan-3-yl)pyridin-3-yl)ethynyl)benzyl)-1-(4-(1-(difluoromethyl)-1H-pyrazol-4-yl)-2,6-difluorobenzyl)-16,16,16-trifluoro-9-hydroxy-15,15-dimethyl-3,6,13-trioxo-5-(1,1,1-trifluoro-2-methylpropan-2-yl)-2-oxa-4,7,11,12-tetraazahexadecan-14-yl)carbamate]",6.25 nM,,,
,,"COC(=O)N[C@H](C(=O)N[C@@H](Cc1ccc(-c2ccn(CC(F)F)n2)cc1)[C@@H](O)CN(Cc1c(F)cc(-c2cnc(N3CC4CCC(C3)N4C3COC3)nc2)cc1F)NC(=O)[C@@H](NC(=O)OC)C(C)(C)C(F)(F)F)C(C)(C)C(F)(F)F [Example 212, Methyl ((5S,8S,9S,14S)-11-(2,6-difluoro-4-(2-(8-(oxetan-3-yl)-3,8-diazabicyclo[3.2.1]octan-3-yl)pyrimidin-5-yl)benzyl)-8-(4-(1-(2,2-difluoroethyl)-1H-pyrazol-3-yl)benzyl)-16,16,16-trifluoro-9-hydroxy-15,15-dimethyl-3,6,13-trioxo-5-(1,1,1-trifluoro-2-methylpropan-2-yl)-2-oxa-4,7,11,12-tetraazahexadecan-14-yl)carbamate]",4.97 nM,0.33 L/H/kg,0.33 L/H/kg,
0.16 L/H/kg,0.32 L/H/kg,"COC(=O)N[C@H](C(=O)N[C@@H](Cc1ccc(C#Cc2cnc(N3CCN(C4COC4)CC3)nc2)cc1)[C@@H](O)CN(Cc1c(F)cc(-c2cnn(C(F)F)c2)cc1F)NC(=O)[C@@H](NC(=O)OC)C(C)(C)C(F)(F)F)C(C)(C)C(F)(F)F [Example 103, Methyl ((5S,8S,9S,14S)-11-(4-(1-(difluoromethyl)-1H-pyrazol-4-yl)-2,6-difluorobenzyl)-16,16,16-trifluoro-9-hydroxy-15,15-dimethyl-8-(4-((2-(4-(oxetan-3-yl)piperazin-1-yl)pyrimidin-5-yl)ethynyl)benzyl)-3,6,13-trioxo-5-(1,1,1-trifluoro-2-methylpropan-2-yl)-2-oxa-4,7,11,12-tetraazahexadecan-14-yl)carbamate]",4.84 nM,,,
,,"COC(=O)N[C@H](C(=O)N[C@@H](Cc1ccc(C#Cc2cnc(N3CC4CCC(C3)N4C3COC3)nc2)cc1)[C@@H](O)CN(Cc1c(F)cc(-c2ccn(C3CC3)n2)cc1F)NC(=O)[C@@H](NC(=O)OC)C(C)(C)C(F)(F)F)C(C)(C)C(F)(F)F [Example 37, Methyl ((5S,8S,9S,14S)-11-(4-(1-cyclopropyl-1H-pyrazol-3-yl)-2,6-difluorobenzyl)-16,16,16-trifluoro-9-hydroxy-15,15-dimethyl-8-(4-((2-(8-(oxetan-3-yl)-3,8-diazabicyclo[3.2.1]octan-3-yl)pyrimidin-5-yl)ethynyl)benzyl)-3,6,13-trioxo-5-(1,1,1-trifluoro-2-methylpropan-2-yl)-2-oxa-4,7,11,12-tetraazahexadecan-14-yl)carbamate]",6.75 nM,<0.11 L/H/kg,0.32 L/H/kg,
,,"COC(=O)N[C@H](C(=O)NN(Cc1c(F)cc(-c2ccccn2)cc1F)C[C@H](O)[C@H](Cc1ccc(C#Cc2ccc(N3CC4CCC(C3)N4C3COC3)nc2)cc1)NC(=O)[C@@H](NC(=O)OC)C(C)(C)C(F)(F)F)C(C)(C)C [Example 53, Methyl ((5S,8S,9S,14S)-11-(2,6-difluoro-4-(pyridin-2-yl)benzyl)-9-hydroxy-15,15-dimethyl-8-(4-((6-(8-(oxetan-3-yl)-3,8-diazabicyclo[3.2.1]octan-3-yl)pyridin-3-yl)ethynyl)benzyl)-3,6,13-trioxo-5-(1,1,1-trifluoro-2-methylpropan-2-yl)-2-oxa-4,7,11,12-tetraazahexadecan-14-yl)carbamate]",2.98 nM,0.51 L/H/kg,0.2 L/H/kg,
0.17 L/H/kg,0.95 L/H/kg,"COC(=O)N[C@H](C(=O)N[C@@H](Cc1ccc(C#Cc2ccc(N3C[C@H]4C[C@@H]3CN4C3COC3)nc2)cc1)[C@@H](O)CN(Cc1c(F)cc(-c2cc(F)ccn2)cc1F)NC(=O)[C@@H](NC(=O)OC)C(C)(C)C(F)(F)F)C(C)(C)C(F)(F)F [Example 138, Methyl ((5S,8S,9S,14S)-11-(2,6-difluoro-4-(4-fluoropyridin-2-yl)benzyl)-16,16,16-trifluoro-9-hydroxy-15,15-dimethyl-8-(4-((6-((1R,4R)-5-(oxetan-3-yl)-2,5-diazabicyclo[2.2.1]heptan-2-yl)pyridin-3-yl)ethynyl)benzyl)-3,6,13-trioxo-5-(1,1,1-trifluoro-2-methylpropan-2-yl)-2-oxa-4,7,11,12-tetraazahexadecan-14-yl)carbamate]",2.32 nM,,,
,,"COC(=O)N[C@H](C(=O)N[C@@H](Cc1ccc(C#Cc2ccc(N3CC4CCC(C3)N4C3COC3)nc2)cc1)[C@@H](O)CN(Cc1c(F)cc(-c2cc(OC3COC3)ccn2)cc1F)NC(=O)[C@@H](NC(=O)OC)C(C)(C)C(F)(F)F)C(C)(C)C(F)(F)F [Example 127, Methyl ((5S,8S,9S,14S)-11-(2,6-difluoro-4-(4-(oxetan-3-yloxy)pyridin-2-yl)benzyl)-16,16,16-trifluoro-9-hydroxy-15,15-dimethyl-8-(4-((6-(8-(oxetan-3-yl)-3,8-diazabicyclo[3.2.1]octan-3-yl)pyridin-3-yl)ethynyl)benzyl)-3,6,13-trioxo-5-(1,1,1-trifluoro-2-methylpropan-2-yl)-2-oxa-4,7,11,12-tetraazahexadecan-14-yl)carbamate]",4.19 nM,0.54 L/H/kg,1.3 L/H/kg,
,,"COC(=O)N[C@H](C(=O)N[C@@H](Cc1ccc(-c2ccc(N3CC4CCC(C3)N4C3COC3)nc2)cc1)[C@@H](O)CN(Cc1c(F)cc(-c2ccc(N3CC4CCC(C3)N4C3COC3)nc2)cc1F)NC(=O)[C@@H](NC(=O)OC)C(C)(C)C(F)(F)F)C(C)(C)C(F)(F)F [Example 203, Methyl ((5S,8S,9S,14S)-11-(2,6-difluoro-4-(6-(8-(oxetan-3-yl)-3,8-diazabicyclo [3.2.1]octan-3-yl)pyridin-3-yl)benzyl)-16,16,16-trifluoro-9-hydroxy-15,15-dimethyl-8-(4-(6-(8-(oxetan-3-yl)-3,8-diazabicyclo[3.2.1]octan-3-yl)pyridin-3-yl)benzyl)-3,6,13-trioxo-5-(1,1,1-trifluoro-2-methylpropan-2-yl)-2-oxa-4,7,11,12-tetraazahexadecan-14-yl)carbamate]",5.02 nM,0.32 L/H/kg,1.09 L/H/kg,
